# Experimental data from patent US20250034216A1, “STEREOSELECTIVE COVALENT LIGANDS FOR ONCOGENIC AND IMMUNOLOGICAL PROTEINS” (The Scripps Research Institute, priority 2021, published 2025).
# What was measured:
# Assay in all cases: IA-DTB cysteine engagement
# Type in all cases: binding
# Conditions in all cases: 22Rv1 cells, 20 μM probe, 1 h, relative to DMSO
# TRMT61A_C209 = molecular target: T1, TRMT61A_C209 (Homo sapiens, UniProt Q96FX7)
# T1 construct: endogenous in cells; host or cells: 22Rv1
# How it was run: (§1)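 Probe-exposed cells were lysed, IA-DTB-labeled, trypsinized and streptavidin-enriched. Multiplexed TMT quantitation gave engagement ratios versus DMSO, with non-tryptic peptides excluded and intensities normalized to median summed signal.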
# CUL5_C112 = molecular target: T2, CUL5_C112 (Homo sapiens, UniProt Q93034)
# T2 construct: endogenous in cells; host or cells: 22Rv1
# T2 sequence (Q93034 1-780): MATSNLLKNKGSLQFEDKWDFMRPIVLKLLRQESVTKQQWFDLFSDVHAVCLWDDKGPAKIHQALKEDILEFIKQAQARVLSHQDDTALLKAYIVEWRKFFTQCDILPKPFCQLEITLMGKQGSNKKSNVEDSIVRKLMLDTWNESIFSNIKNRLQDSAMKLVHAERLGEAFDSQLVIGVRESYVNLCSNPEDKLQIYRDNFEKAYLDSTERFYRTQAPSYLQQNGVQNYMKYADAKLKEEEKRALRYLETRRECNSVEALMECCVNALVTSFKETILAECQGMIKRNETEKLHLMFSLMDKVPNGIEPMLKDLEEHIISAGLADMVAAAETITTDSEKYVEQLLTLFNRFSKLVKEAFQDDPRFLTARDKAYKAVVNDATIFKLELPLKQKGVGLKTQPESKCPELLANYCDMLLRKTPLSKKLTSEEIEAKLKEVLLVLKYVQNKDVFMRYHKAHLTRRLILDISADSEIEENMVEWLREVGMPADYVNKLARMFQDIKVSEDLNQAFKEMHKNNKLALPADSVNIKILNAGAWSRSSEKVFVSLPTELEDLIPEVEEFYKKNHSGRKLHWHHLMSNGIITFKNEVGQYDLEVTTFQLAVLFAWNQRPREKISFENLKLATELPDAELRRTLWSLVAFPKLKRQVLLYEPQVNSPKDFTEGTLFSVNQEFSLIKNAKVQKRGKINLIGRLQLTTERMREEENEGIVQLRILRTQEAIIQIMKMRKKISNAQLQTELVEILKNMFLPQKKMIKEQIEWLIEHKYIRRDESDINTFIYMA
# How it was run: as §1
# NUDT8_C207 = molecular target: T3, NUDT8_C207 (Homo sapiens, UniProt Q8WV74)
# T3 construct: endogenous in cells; host or cells: 22Rv1
# T3 sequence (Q8WV74 1-236): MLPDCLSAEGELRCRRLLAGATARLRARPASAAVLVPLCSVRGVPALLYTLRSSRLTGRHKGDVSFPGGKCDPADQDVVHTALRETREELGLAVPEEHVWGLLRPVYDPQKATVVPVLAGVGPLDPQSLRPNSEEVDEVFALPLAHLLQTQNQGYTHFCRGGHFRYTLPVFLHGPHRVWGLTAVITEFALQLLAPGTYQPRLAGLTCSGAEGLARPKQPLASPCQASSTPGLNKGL
# How it was run: as §1
# ITPR2_C292 = molecular target: T4, ITPR2_C292 (Homo sapiens, UniProt Q14571)
# T4 construct: endogenous in cells; host or cells: 22Rv1
# How it was run: as §1
# T4 sequence (Q14571 whole entry): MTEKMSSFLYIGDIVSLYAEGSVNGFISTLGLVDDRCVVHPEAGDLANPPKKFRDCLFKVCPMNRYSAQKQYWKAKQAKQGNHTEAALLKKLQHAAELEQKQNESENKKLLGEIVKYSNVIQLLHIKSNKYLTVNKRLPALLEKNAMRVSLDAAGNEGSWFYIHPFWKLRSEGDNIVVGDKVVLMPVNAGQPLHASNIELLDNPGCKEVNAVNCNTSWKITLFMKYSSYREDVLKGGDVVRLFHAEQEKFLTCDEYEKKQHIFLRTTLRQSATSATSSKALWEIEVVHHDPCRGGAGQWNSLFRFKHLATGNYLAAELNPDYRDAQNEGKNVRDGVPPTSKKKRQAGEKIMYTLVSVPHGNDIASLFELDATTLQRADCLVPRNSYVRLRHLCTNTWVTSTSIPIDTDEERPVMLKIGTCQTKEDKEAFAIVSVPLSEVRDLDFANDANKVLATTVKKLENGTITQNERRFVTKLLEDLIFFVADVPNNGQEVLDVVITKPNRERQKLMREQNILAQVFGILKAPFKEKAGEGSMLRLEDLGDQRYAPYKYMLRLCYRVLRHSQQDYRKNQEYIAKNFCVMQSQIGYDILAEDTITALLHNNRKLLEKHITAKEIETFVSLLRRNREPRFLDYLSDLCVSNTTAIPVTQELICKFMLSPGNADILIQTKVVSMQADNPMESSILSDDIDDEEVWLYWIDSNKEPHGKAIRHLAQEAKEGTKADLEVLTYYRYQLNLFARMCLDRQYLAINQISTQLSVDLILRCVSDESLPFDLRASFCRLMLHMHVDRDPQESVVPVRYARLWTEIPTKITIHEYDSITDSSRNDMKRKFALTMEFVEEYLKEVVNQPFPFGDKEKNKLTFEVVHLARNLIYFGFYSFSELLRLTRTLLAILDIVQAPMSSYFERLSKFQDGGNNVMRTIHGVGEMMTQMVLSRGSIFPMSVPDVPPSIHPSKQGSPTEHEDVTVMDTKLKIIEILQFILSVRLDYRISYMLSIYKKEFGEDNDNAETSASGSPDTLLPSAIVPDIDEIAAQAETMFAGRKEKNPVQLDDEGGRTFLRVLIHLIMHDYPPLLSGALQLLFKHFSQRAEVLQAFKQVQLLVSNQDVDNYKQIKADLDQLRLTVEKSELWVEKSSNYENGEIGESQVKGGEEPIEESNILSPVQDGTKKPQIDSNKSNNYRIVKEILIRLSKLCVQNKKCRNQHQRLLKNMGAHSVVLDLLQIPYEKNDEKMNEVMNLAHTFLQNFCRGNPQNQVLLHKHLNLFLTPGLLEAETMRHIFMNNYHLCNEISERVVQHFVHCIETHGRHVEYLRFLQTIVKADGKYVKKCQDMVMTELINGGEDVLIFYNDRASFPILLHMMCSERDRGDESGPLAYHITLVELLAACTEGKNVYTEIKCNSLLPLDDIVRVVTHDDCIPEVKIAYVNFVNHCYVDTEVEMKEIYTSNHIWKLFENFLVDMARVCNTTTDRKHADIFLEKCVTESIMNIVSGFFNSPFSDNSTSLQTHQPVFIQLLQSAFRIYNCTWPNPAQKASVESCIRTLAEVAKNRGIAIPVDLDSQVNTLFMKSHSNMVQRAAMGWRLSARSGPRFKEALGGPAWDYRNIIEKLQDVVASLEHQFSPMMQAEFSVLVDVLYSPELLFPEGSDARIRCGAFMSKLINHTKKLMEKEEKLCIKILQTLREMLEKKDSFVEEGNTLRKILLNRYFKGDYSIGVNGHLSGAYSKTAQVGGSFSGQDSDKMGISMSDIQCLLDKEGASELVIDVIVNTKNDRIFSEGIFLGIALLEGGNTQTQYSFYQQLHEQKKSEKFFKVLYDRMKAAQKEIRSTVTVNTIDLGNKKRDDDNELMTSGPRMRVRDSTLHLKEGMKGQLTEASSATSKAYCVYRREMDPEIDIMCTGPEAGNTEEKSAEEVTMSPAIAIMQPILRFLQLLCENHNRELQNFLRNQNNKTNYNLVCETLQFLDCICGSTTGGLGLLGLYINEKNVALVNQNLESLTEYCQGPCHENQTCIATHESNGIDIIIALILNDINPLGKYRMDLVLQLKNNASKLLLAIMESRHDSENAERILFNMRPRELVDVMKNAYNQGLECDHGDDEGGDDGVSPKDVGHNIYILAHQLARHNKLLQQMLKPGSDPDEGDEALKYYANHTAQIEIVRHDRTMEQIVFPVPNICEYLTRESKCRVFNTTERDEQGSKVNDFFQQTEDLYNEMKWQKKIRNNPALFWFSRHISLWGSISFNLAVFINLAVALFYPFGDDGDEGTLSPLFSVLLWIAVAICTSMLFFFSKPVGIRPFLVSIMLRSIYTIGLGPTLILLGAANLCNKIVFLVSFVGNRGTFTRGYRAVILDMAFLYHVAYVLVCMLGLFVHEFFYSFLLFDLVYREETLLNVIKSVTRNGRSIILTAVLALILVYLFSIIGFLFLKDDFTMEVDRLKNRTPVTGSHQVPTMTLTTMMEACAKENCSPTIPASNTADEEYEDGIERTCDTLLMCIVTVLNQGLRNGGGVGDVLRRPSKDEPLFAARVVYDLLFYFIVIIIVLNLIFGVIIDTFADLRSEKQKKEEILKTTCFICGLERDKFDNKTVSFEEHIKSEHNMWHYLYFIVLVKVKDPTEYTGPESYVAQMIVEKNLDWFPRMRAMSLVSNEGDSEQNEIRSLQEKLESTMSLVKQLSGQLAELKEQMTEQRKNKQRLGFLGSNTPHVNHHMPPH
# T1 sequence (Q96FX7 whole entry): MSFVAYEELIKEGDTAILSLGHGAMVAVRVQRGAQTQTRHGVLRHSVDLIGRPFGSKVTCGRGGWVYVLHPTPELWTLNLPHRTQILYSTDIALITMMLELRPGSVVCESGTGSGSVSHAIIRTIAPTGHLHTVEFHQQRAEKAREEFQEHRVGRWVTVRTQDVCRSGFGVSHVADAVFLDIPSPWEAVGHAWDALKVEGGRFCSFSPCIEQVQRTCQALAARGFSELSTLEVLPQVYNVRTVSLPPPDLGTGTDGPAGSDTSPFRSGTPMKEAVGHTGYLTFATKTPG
SMILES,% engagement TRMT61A_C209 (TRMT61A_C209) [%],% engagement CUL5_C112 (CUL5_C112) [%],% engagement NUDT8_C207 (NUDT8_C207) [%],% engagement ITPR2_C292 (ITPR2_C292) [%]
"C=CC(=O)N1C[C@H](c2ccc(Br)cc2)[C@H]1C(=O)Nc1cccc2cccnc12 [MY-3A, (2S,3S)-1-acryloyl-3-(4-bromophenyl)-N-(quinolin-8-yl)azetidine-2-carboxamide]",18.75,−14.75,64.25,48.5
"C=CC(=O)N1C[C@H](c2ccc(Br)cc2)[C@@H]1C(=O)Nc1cccc2cccnc12 [MY-1B, (2R,3S)-1-acryloyl-3-(4-bromophenyl)-N-(quinolin-8-yl)azetidine-2-carboxamide]",67,11,78.5,70
"C=CC(=O)N1C[C@H](c2ccc(Br)cc2)[C@H]1C(=O)Nc1cccc2cccnc12 [MY-3B, (2S,3S)-1-acryloyl-3-(4-bromophenyl)-N-(quinolin-8-yl)azetidine-2-carboxamide]",56,−20,88.75,50.5
"C=CC(=O)N1C[C@@H](c2ccc(Br)cc2)[C@H]1C(=O)Nc1cccc2cccnc12 [MY-1A, (2S,3R)-1-acryloyl-3-(4-bromophenyl)-N-(quinolin-8-yl)azetidine-2-carboxamide]",40.75,95.5,71.5,24.5
